Columns and labels:
DU145 cell line [1] = assay: Cell viability / cell growth, MTT assay; assay type: cell-based, human
Procedure: DU145 (human HRPC cell line, derived from a patient with brain metastasis) and PrEC (human normal prostate epithelial cell line) cell lines were obtained from Korea Cell Line Bank (KCLB, Seoul, South Korea). DU145 and PrEC cell lines were grown in triplicate culture plates containing RPMI-1640 (HyClone, Logan, Utah, USA) and Dulbecco's Modified Eagle's Medium (HyClone, Logan, Utah, USA) respectively, and kept in a humidified atmosphere containing 5% CO2 at 37° C. for 72 h. The media were supplemented with 10% heat-inactivated fetal bovine serum (HyClone, Logan, Utah, USA), 1% antibio-antimicotic solution containing 10,000 units/ml of penicillin and 10 mg/ml of streptomycin (HyClone, Logan, Utah, USA), HEPES, sodium bicarbonate, p-aminobenzoic acid and insulin (complete culture media). D-Allose was purchased from Sigma (St. Louis, Mo., USA) and dissolved at a concentration of 1 M in sterile phosphate-buffered saline (PBS), and was further sterilized by filtration. To examine the dose- and time-dependent effects, the cell lines (70-80% confluent) were treated with 0-40 mM of D-allose for up to 72 h, whereas without D-allose treated cell lines (0 mM) were considered as control. DU145 cell line was also treated with 0-40 mM of D-glucose. All the other chemicals used in the work were procured from Sigma (St. Louis, Mo., USA), unless otherwise specified.
(§1) The logarithmic growth phase of DU145 and PrEC cell lines were taken for growth assay using 3-[4,5-dimethylthiazol-2-yl]-2,5-diphenyl tetrazolium bromide (MTT). […] After incubation for the specified time at 37° C. in a humidified 5% CO2 incubator, cell viability was determined. […] To achieve solubilization of formazan crystal formed in viable cells, DMSO was added to each well, and the absorbance was recorded on a microplate reader at 595 nm wavelength. The effect of sugars on growth inhibition was assessed as percent cell viability where control cells were taken as 100% viable.

PrEC cell line [2] = assay: Cell viability / cell growth, MTT assay; assay type: cell-based; conditions: human NPE cell line PrEC, 0-40 mM
Procedure: DU145 (human HRPC cell line, derived from a patient with brain metastasis) and PrEC (human normal prostate epithelial cell line) cell lines were obtained from Korea Cell Line Bank (KCLB, Seoul, South Korea). DU145 and PrEC cell lines were grown in triplicate culture plates containing RPMI-1640 (HyClone, Logan, Utah, USA) and Dulbecco's Modified Eagle's Medium (HyClone, Logan, Utah, USA) respectively, and kept in a humidified atmosphere containing 5% CO2 at 37° C. for 72 h. The media were supplemented with 10% heat-inactivated fetal bovine serum (HyClone, Logan, Utah, USA), 1% antibio-antimicotic solution containing 10,000 units/ml of penicillin and 10 mg/ml of streptomycin (HyClone, Logan, Utah, USA), HEPES, sodium bicarbonate, p-aminobenzoic acid and insulin (complete culture media). […]
as §1

DU145 cell line [3] = assay: Apoptotic indices by DAPI staining, confocal microscopy; assay type: cell-based, human; conditions: DU145, 24, 48 and 72 h
Procedure: (§2) The Annexin-V-FLUOS Staining Kit (Roche Diagnostics GmbH, Mannheim, Germany) was used for the detection and quantification of the apoptotic cells. This kit uses a dual-staining protocol in which the apoptotic cells are stained with annexin-V (green fluorescence) and the necrotic cells are stained with propidium iodide (PI, red fluorescence). Briefly, DU145 cell line was grown at a density of 1×10^6 cells in triplicate culture plates and then treated with D-allose (0, 20 and 40 mM) for 48 and 72 h. The cells were treated with trypsin and harvested with PBS and processed for labeling with annexin-V and PI by the use of the kit according to the manufacturer's protocol. The fluorescence was measured by flow cytometric analysis, performed on a FACSCalibur (Becton Dickinson, San Jose, Calif., USA) using 488 nm excitation and a 515 nm band pass filter for fluorescein detection and a filter [600 nm for PI detection (FL1: Annexin-V-FLUOS; FL2: PI). Further, apoptotic indices were measured by analysis of fragmented or scattered nuclei and condensed chromosome as the stringent morphological criteria of apoptosis, detectable by confocal microscopy on cells stained with DNA-intercalating dye […] (DAPI). For this purpose, DU145 and PrEC cell lines were exposed to 0, 20 and 40 mM of D-allose for up to 72 h, stained with DAPI (1 μg/ml in methanol), mounted with Prolong Antifade reagent (Molecular Probes, Eugene, Oreg., USA), and images were acquired by use of a confocal laser scanning microscope (Fluoview FV 1000, Olympus, Japan). The numbers of apoptotic nuclei per 100 cells were counted from the five high power fields/slide and apoptotic indices were expressed as a percentage of the untreated controls in each cell line, considering the value as 100%. DU145 cell line was also treated with 0-40 mM of D-glucose for determination of apoptotic indices as mentioned above.

PrEC cell line [4] = assay: as above; assay type: cell-based, human; conditions: PrEC, 24, 48 and 72 h
Procedure: as §2

DU145 cell line [5] = assay: Quantification of apoptosis by annexin-V/PI flow cytometry; assay type: cell-based, human
Procedure: as §2

Bcl-2 = assay: Western blot analysis of Bcl-2 protein in DU145; assay type: cell-based, human; conditions: DU145, 20 and 40 mM, 72 h
Procedure: (§3) After 0, 20 and 40 mM of D-allose treatments for 72 h, DU145 cell line (1×10^6 cells in triplicate culture plates) was harvested into cell lysis buffer (Cell Signaling, Danvers, Mass., USA) supplemented with 1 mM PMSF. The cells were then sonicated, centrifuged and protein concentration was measured by Bradford assay with the Bio-Rad protein assay solution using bovine serum albumin (BSA) as standard. Proteins (30 μg) were separated on a 12.5% SDS-PAGE under reducing conditions and transferred onto a PVDF membrane (Santa Cruz Biotechnology, Santa Cruz, Calif., USA). Prestained protein marker, broad range: 6-175 kDa (New England Biolabs Inc., Ipswich, Mass., USA) run in parallel for detection of the molecular weights of the proteins. Membrane was blocked with 5% (w/v) skimmed milk in order to reduce non-specific binding and immunoblotting was performed using rabbit derived anti-Bcl-2, anti-Bax, anti-Caspase 3 and anti-PARP antibodies (1:500; Santa Cruz Biotechnology, Santa Cruz, Calif., USA). […] Membrane was probed with a goat derived horseradish peroxidase-conjugated anti-rabbit IgG (1:1000; Santa Cruz Biotechnology, Santa Cruz, Calif., USA), and proteins were detected by the enhanced chemiluminescence (ECL) detection system according to the vendor's protocol (Amersham Biosciences, Piscataway, N.J., USA) followed by X-ray exposure. […]

Bax = assay: Western blot analysis of Bax protein in DU145; assay type: cell-based, human; conditions: DU145, 40 mM, 72 h
Procedure: as §3

caspase 3 = assay: Western blot analysis of caspase 3 protein in DU145; assay type: cell-based, human; conditions: DU145, 0, 20 and 40 mM, 72 h
Procedure: as §3

cyt C = assay: Mitochondrial cyt C release and nuclear morphology, immunofluorescence; assay type: cell-based, human; conditions: DU145, 20 and 40 mM, 48 h
Procedure: The in situ analysis of cyt C was carried out by immunofluorescence technique. […] Cyt C was detected by using mouse anti-cyt C antibody and rabbit anti-mouse FITC-labeled antibody (1:250 and 1:200, respectively; Santa Cruz Biotechnology, Santa Cruz, Calif., USA). DU145 cell line treated with FITC-labeled secondary antibody alone was considered as negative control. Subsequently, chromatin was stained with PI (1 mg/ml in PBS) for 20 min in dark and slides were mounted with Prolong Antifade reagent (Molecular Probes, Eugene, Oreg., USA). Cyt C (green) and chromatin (red) staining patterns were acquired by use of a confocal laser scanning microscope (Fluoview FV 1000, Olympus, Japan).

O=C[C@H](O)[C@H](O)[C@H](O)[C@H](O)CO [D-allose]
cell growth (MTT assay) (DU145 cell line [1]; DU145, 0-40 mM, compared to control): significant dose-dependent inhibition of cell growth | time dependence of cell growth inhibition (MTT assay) (DU145 cell line [1]; DU145, 24, 48 and 72 h): time-dependent inhibition of DU145 cell growth, which was more pronounced at 72 h post-treatment | effect on growth of PrEC cell line (PrEC cell line [2]): no remarkable effect | programmed cell death (apoptotic indices, DAPI staining) (DU145 cell line [3]): significant dose- and time-dependent programmed cell death | programmed cell death (apoptotic indices, DAPI staining) (PrEC cell line [4]): very negligible effect | apoptotic cells (annexin-V/PI) (DU145 cell line [5]; DU145, 20 mM, 48 h, untreated control 1.2%): 5.1% | apoptotic cells (annexin-V/PI) (DU145 cell line [5]; DU145, 20 mM, untreated control 2.3%): 11.9% | apoptotic cells (annexin-V/PI) (DU145 cell line [5]; DU145, 40 mM, 48 h, untreated control 1.2%): 8.7% | apoptotic cells (annexin-V/PI) (DU145 cell line [5]; DU145, 40 mM, untreated control 2.3%): 23.5% | Bcl-2 protein expression (Bcl-2): significantly decreased | Bax protein expression (Bax): remarkably increased | cleaved caspase 3 product (caspase 3): concomitant increase | full length caspase 3 protein expression (caspase 3): remarkable dose-dependent decrease | cyt C release from mitochondria and chromatin condensation (cyt C): release of cyt C from mitochondria into cytosol and chromatin condensation

Reference: patent US20110071094A1, “(D)-ALLOSE INDUCING PROGRAMMED CELL DEATH IN HORMONE REFRACTORY PROSTATE CANCER LINES” (INDUSTRY-ACADEMIC COOPERATION FOUDATION, GYEONGSANG …, priority 2008, published 2011)
